Assay results as given in US11076595B2, “1-(n,n-disubstituted carbamoyl) 4-(substituted sulfonyl)triazolin-5-one derivative, 4-(n,n-disubstituted carbamoyl) 1-(substituted sulfonyl)triazolin-5-one derivative, and herbicide containing said derivative as active ingredient” (HOKKO CHEMICAL INDUSTRY CO., LTD., priority 2017, dated 2021).

Columns and labels:
Format in all cases: in vivo
[1] = tested on: Echinochloa crus-galli; experiment: Test Example 11: herbicidal effect test by soil treatment in paddy field; conditions: 120 g/10a active ingredient, 14 days after treatment
How it was run: (§1)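 Dry weight at day 14 relative to untreated controls gives the suppression rate; duplicate pots. Treatment: 120 g a.i./10 are into paddy water at sowing.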

[2] = tested on: Lindernia pyxidaria; experiment: as above; conditions: 120 g/10a active ingredient, 14 days after treatment
How it was run: as §1

[3] = tested on: Monochoria vaginalis; experiment: as above; conditions: 120 g/10a active ingredient, 14 days after treatment
How it was run: as §1

[4] = tested on: Scirpus juncoides; experiment: as above; conditions: 120 g/10a active ingredient, 14 days after treatment
How it was run: as §1

[5] = tested on: Echinochloa crus-galli; experiment: Test Example 12: herbicidal effect test by treatment during growing period in paddy field; conditions: 120 g/10a; treatment seven days after sowing in flooded paddy pot; assessed 14 days after treatment
How it was run: (§2)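 Paddy soil + NPK 17:17:17, puddled; 30 seeds/species sown 0–1 cm; flooded ~3 cm, greenhouse. Day 7 post-sowing: EC diluted in water, applied dropwise into water, 120 g a.i./10 are. Day 14 post-treatment: dry weight vs untreated → % suppression; n=2.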

[6] = tested on: Lindernia pyxidaria; experiment: as above; conditions: 120 g/10a; treatment seven days after sowing in flooded paddy pot; assessed 14 days after treatment
How it was run: as §2

[7] = tested on: Monochoria vaginalis; experiment: as above; conditions: 120 g/10a; treatment seven days after sowing in flooded paddy pot; assessed 14 days after treatment
How it was run: as §2

[8] = tested on: Scirpus juncoides; experiment: as above; conditions: 120 g/10a; treatment seven days after sowing in flooded paddy pot; assessed 14 days after treatment
How it was run: as §2

[9] = tested on: Amaranthus viridis; experiment: Test Example 13: herbicidal effect test by soil treatment in upland field; conditions: 120 g/10a, 14 days after treatment
How it was run: (§3)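 Soil-applied emulsifiable concentrate at 120 g active ingredient per 10 are, sprayed one day after seeding into alluvial soil pots. Dry-weight-based suppression scored at 14 days; two replications.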

[10] = tested on: Chenopodium album; experiment: as above; conditions: 120 g/10a, 14 days after treatment
How it was run: as §3

[11] = tested on: Echinochloa crus-galli; experiment: as above; conditions: 120 g/10a, 14 days after treatment
How it was run: as §3

[12] = tested on: crabgrass; experiment: as above; conditions: 120 g/10a, 14 days after treatment
How it was run: as §3

[13] = tested on: Chenopodium album; experiment: Test Example 14: herbicidal effect test by foliage treatment in upland field; conditions: 7 days after sowing, 120 g/10a, 14 days after treatment
How it was run: (§4)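 Dose: 120 g a.i. per 10 are, sprayed in 100 L water per 10 are onto pots seven days post-sowing in alluvial soil. After 14 days, weed dry weight relative to untreated plots gave suppression rate (%); duplicate plots per concentration.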

[14] = tested on: crabgrass; experiment: as above; conditions: 7 days after sowing, 120 g/10a, 14 days after treatment
How it was run: as §4

[15] = tested on: Amaranthus viridis; experiment: as above; conditions: 7 days after sowing, 120 g/10a, 14 days after treatment
How it was run: as §4

[16] = tested on: Echinochloa crus-galli; experiment: as above; conditions: 7 days after sowing, 120 g/10a, 14 days after treatment
How it was run: as §4

| SMILES | Weed suppression rate (%) Echinochloa crus-galli [1] [%] | Weed suppression rate (%) Lindemia pyxidaria [2] [%] | Weed suppression rate (%) Monochoria vaginalis [3] [%] | Weed suppression rate (%) Scirpus juncoides [4] [%] | Weed suppression rate (%) Echinochloa crus-galli [5] [%] | Weed suppression rate (%) Lindemia pyxidaria [6] [%] | Weed suppression rate (%) Monochoria vaginalis [7] [%] | Weed suppression rate (%) Scirpus juncoides [8] [%] | herbicidal effect, Amaranthus viridis [9] [%] | herbicidal effect, Chenopodium album [10] [%] | herbicidal effect, Echinochloa crus-galli [11] [%] | herbicidal effect, Crabgrass [12] [%] | herbicidal effect, Chenopodium album [13] [%] | herbicidal effect, Crabgrass [14] [%] | herbicidal effect, Amaranthus viridis [15] [%] | herbicidal effect, Echinochloa crus-galli [16] [%] |
| --- | --- | --- | --- | --- | --- | --- | --- | --- | --- | --- | --- | --- | --- | --- | --- | --- |
| CC(C)N(C(=O)n1cnn(S(=O)(=O)c2cccs2)c1=O)c1ccc(F)cc1Cl [Compound 11-1029] | 90 | 80 | 80 | 90 | 90 | 80 | 80 | 90 | 90 | 80 | 80 | 90 | 80 | 90 | 90 | 80 |
| CC(C)N(C(=O)n1cnn(S(=O)(=O)N(C)C)c1=O)c1ccc(F)cc1 [Compound 11-1056] | 90 | 80 | 80 | 90 | 90 | 80 | 80 | 90 | 90 | 80 | 80 | 90 | 80 | 90 | 90 | 80 |
| CC(C)N(C(=O)n1cnn(S(C)(=O)=O)c1=O)c1ccccc1 [Compound 11-1] | 90 | 80 | 80 | 90 | 90 | 80 | 80 | 90 | 90 | 80 | 80 | 90 | 80 | 90 | 90 | 80 |
| CCS(=O)(=O)n1ncn(C(=O)N(c2cccc(F)c2F)C(C)C)c1=O [Compound 11-1148] | 100 | 100 | 90 | 100 | 100 | 90 | 90 | 100 | 100 | 90 | 100 | 100 | 80 | 100 | 70 | 100 |
| CC(C)N(C(=O)n1cnn(S(=O)(=O)c2ccccc2Cl)c1=O)c1ccc(F)cc1F [Compound 11-512] | 100 | 100 | 100 | 100 | 100 | 100 | 100 | 90 | 70 | 50 | 100 | 100 | 50 | 90 | 40 | 80 |
| CC(C)N(C(=O)n1cnn(S(=O)(=O)C2CCOCC2)c1=O)c1ccc(F)cc1F [Compound 11-1109] | 90 | 80 | 80 | 90 | 90 | 80 | 80 | 90 | 100 | 100 | 100 | 100 | 80 | 90 | 90 | 80 |
| CCC(C)S(=O)(=O)n1ncn(C(=O)N(c2ccc(F)cc2F)C(C)C)c1=O (stereo not drawn) [Compound 11-93] | 90 | 90 | 90 | 90 | 90 | 80 | 90 | 90 | 90 | 80 | 80 | 90 | 80 | 90 | 90 | 80 |
| Cc1ccc(N(C(=O)n2cnn(S(=O)(=O)C3CC3)c2=O)C(C)C)c(F)c1 [Compound 11-212] | 100 | 90 | 80 | 90 | 90 | 80 | 80 | 90 | 60 | 60 | 100 | 100 | 80 | 90 | 90 | 80 |
| CC(C)N(C(=O)n1cnn(S(=O)(=O)N(C)C)c1=O)c1ccc(F)cc1Cl [Compound 11-1071] | 90 | 80 | 80 | 90 | 90 | 80 | 80 | 90 | 90 | 80 | 80 | 90 | 80 | 90 | 90 | 80 |
